# The source made the active and inactive calls. No cut-off for these calls is given here.
# Key:
# [1] = biological target: T1, Protein deacetylase HDAC6 (Homo sapiens, UniProt Q9UBN7); experiment: Inhibition of HDAC6
# T1 sequence (Q9UBN7 whole entry): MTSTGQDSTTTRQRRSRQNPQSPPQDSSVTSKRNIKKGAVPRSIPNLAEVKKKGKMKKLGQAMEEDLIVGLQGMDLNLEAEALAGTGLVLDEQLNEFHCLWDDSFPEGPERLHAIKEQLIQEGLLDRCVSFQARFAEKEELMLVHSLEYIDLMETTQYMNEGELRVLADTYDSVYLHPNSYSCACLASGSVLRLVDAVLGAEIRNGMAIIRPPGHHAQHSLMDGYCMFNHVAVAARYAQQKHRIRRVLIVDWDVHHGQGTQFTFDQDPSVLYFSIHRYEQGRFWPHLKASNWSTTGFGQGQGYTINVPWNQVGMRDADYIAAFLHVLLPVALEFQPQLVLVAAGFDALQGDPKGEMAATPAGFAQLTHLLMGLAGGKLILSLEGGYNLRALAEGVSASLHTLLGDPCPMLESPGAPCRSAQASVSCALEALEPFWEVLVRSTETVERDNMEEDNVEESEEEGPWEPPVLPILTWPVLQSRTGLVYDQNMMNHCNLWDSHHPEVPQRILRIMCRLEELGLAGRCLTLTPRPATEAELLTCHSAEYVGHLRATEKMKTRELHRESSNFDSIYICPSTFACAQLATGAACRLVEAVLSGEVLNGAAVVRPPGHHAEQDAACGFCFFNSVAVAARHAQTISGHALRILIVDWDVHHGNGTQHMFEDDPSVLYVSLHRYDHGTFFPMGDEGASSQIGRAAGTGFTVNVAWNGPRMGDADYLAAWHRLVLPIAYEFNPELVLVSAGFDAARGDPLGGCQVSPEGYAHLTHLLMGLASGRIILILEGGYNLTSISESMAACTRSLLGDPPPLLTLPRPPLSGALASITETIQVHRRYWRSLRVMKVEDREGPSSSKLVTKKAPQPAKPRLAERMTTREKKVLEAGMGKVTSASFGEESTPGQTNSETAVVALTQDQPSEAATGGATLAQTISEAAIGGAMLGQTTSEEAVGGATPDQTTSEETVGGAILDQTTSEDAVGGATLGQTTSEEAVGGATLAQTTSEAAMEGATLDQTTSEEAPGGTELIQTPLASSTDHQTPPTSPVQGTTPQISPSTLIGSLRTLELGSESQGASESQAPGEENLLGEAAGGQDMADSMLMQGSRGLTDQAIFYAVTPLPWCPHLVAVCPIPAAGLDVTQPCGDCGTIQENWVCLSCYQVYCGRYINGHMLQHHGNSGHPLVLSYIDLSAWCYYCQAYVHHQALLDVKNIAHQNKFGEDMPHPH
# Histone deacetylase 1 [2] = biological target: T2, Histone deacetylase 1 (Homo sapiens, UniProt Q13547); experiment: Inhibition of HDAC1
# Histone deacetylase 4 [3] = biological target: T3, Histone deacetylase 4 (Homo sapiens, UniProt P56524); experiment: Inhibition of wild type HDAC4 expressed in Escherichia coli
# Histone deacetylase 4 [4] = biological target: Histone deacetylase 4 (Homo sapiens, UniProt P56524, H976Y); experiment: Inhibition of HDAC4GOF mutant expressed in Escherichia coli
# Histone deacetylase 3 [5] = biological target: T4, Histone deacetylase 3 (Homo sapiens, UniProt O15379); experiment: Inhibition of HDAC3
# [6] = biological target: T5, Protein deacetylase HDAC6 (Homo sapiens) (UniProt Q9UBN7); experiment: Inhibition of HDAC6 at 10 uM
# T5 sequence (whole entry): T1 sequence (Q9UBN7 whole entry)
# Histone deacetylase 1 [7] = biological target: T2, Histone deacetylase 1; experiment: Inhibition of HDAC1 at 10 uM
# Histone deacetylase 3 [8] = biological target: T4, Histone deacetylase 3; experiment: Inhibition of HDAC3 at 10 uM
# Histone deacetylase 4 [9] = biological target: T3, Histone deacetylase 4; experiment: Inhibition of wild type HDAC4 at 10 uM
# [10] = test system: T6, Histone deacetylase 4 (Homo sapiens), P56524 [H976Y]; experiment: Inhibition of HDAC4GOF mutant at 10 uM
# T6 sequence (whole entry): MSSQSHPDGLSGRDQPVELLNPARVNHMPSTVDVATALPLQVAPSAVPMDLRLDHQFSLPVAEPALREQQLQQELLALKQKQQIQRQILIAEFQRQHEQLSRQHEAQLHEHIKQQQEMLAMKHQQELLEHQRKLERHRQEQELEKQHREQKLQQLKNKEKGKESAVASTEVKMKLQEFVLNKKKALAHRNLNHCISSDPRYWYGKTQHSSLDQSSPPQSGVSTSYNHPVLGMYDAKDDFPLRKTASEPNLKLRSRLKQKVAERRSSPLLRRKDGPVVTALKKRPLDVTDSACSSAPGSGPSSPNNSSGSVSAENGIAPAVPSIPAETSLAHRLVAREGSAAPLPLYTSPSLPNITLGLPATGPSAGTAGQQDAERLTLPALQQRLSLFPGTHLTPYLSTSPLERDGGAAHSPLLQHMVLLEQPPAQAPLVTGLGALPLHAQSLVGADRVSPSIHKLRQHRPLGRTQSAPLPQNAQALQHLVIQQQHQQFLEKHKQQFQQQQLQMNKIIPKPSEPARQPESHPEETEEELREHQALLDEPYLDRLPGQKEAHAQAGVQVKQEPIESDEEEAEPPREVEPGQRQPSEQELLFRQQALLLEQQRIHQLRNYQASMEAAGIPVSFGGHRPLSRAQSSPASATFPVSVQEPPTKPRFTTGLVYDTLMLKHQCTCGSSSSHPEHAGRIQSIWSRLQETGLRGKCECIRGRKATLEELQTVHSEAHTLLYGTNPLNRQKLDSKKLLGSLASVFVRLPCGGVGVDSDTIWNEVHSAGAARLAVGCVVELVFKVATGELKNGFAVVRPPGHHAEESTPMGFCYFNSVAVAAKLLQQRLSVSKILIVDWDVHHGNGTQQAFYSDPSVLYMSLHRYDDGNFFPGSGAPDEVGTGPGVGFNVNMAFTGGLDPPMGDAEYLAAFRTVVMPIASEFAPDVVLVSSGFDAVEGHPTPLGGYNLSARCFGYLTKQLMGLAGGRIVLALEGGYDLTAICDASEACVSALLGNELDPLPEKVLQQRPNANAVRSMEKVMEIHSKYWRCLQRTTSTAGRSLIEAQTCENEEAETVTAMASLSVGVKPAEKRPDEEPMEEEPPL
# T4 sequence (O15379 whole entry): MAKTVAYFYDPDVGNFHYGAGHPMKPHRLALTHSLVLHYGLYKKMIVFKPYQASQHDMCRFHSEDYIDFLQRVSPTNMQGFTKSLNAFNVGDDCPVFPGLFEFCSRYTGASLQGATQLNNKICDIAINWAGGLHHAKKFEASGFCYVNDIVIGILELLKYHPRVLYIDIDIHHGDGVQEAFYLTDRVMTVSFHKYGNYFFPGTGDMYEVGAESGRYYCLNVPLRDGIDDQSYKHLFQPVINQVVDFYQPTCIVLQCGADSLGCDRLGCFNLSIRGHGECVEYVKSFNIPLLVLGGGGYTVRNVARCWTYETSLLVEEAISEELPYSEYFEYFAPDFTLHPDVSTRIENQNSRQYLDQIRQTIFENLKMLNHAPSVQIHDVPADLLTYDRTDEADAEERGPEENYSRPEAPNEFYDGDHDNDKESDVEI
# T2 sequence (Q13547 whole entry): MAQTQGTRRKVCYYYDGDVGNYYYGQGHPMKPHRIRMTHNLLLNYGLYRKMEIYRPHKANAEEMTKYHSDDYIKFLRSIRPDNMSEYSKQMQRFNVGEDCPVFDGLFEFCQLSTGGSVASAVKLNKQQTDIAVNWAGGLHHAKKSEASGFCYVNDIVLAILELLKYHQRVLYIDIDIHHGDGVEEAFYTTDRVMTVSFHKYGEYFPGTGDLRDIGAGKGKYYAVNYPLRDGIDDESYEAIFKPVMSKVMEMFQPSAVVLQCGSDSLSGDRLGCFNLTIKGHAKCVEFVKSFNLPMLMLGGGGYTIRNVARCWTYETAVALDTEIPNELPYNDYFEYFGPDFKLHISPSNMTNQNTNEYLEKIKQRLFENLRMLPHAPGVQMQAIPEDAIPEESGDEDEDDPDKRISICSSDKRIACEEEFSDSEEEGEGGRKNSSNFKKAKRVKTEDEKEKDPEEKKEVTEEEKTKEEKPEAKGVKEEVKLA
# T3 sequence (P56524 whole entry): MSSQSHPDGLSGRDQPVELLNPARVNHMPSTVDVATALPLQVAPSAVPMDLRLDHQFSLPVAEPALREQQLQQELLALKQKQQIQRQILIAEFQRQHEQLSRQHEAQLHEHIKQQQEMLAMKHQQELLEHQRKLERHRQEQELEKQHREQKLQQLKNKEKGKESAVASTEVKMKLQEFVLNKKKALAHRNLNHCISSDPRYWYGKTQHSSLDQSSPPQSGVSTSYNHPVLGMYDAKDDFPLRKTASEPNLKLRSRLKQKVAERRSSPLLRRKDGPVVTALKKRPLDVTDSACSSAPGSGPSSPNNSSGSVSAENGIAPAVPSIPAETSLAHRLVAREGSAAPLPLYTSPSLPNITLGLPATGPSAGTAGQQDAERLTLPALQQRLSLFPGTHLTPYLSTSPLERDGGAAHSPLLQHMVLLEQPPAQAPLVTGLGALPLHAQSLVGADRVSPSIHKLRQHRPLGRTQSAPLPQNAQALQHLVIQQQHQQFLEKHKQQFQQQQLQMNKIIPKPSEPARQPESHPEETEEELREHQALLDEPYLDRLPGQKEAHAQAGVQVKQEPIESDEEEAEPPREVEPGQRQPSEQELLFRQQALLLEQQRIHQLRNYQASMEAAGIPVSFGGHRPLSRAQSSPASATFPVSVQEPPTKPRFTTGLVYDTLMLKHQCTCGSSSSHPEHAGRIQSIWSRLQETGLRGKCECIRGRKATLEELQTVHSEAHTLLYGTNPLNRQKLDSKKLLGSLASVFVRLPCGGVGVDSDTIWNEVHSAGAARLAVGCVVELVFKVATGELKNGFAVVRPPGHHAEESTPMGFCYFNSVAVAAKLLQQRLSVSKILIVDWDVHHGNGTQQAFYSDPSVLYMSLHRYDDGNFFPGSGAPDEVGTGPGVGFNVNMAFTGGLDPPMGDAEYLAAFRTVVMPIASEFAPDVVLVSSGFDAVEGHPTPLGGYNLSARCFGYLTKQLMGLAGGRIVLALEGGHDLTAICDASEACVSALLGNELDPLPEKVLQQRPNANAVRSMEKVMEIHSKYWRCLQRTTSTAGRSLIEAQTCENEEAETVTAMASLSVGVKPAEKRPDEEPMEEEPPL
Compound,IC50 [1],IC50 (Histone deacetylase 1 [2]),IC50 (Histone deacetylase 4 [3]),IC50 (Histone deacetylase 4 [4]),IC50 (Histone deacetylase 3 [5]),Activity (Histone deacetylase 1 [7]),Activity (Histone deacetylase 3 [8]),Activity [10],further results
CCOC(=O)c1ccc(C(=O)C(F)(F)F)s1,550 nM,5700 nM,320 nM,350 nM,3500 nM,,,,
CN(Cc1ccccc1)Cc1ccc(C(=O)C(F)(F)F)s1,490 nM,3100 nM,970 nM,1100 nM,4600 nM,,,,
O=C(c1ccc(C2(C(F)(F)F)OCCO2)s1)N1CCc2ccccc21,,,,,,inactive,inactive,inactive,Activity [6]: inactive; Activity (Histone deacetylase 4 [9]): inactive
CN(Cc1ccccc1)S(=O)(=O)c1csc(C(=O)C(F)(F)F)c1,2500 nM,,9400 nM,,,inactive,inactive,inactive,
O=C(c1ccc(C(=O)C(F)(F)F)s1)N1CCc2ccccc21,200 nM,2000 nM,130 nM,300 nM,1700 nM,,,,
O=C(NCC1CCCCC1)c1cc(C(=O)C(F)(F)F)cs1,2000 nM,,3300 nM,2400 nM,,,inactive,,inhibition (Histone deacetylase 1 [7]): 40%
O=C(NCCc1ccccc1)c1ccc(C(=O)C(F)(F)F)s1,210 nM,880 nM,330 nM,180 nM,1700 nM,,,,
CN(Cc1ccccc1)S(=O)(=O)c1ccc(C(=O)C(F)(F)F)s1,730 nM,,340 nM,1200 nM,,inactive,inactive,,
O=C(NCC1CCCCC1)c1cnc(C(=O)C(F)(F)F)s1,1500 nM,,850 nM,2900 nM,7600 nM,inactive,,,
COc1ccc(CNC(=O)c2ccc(C(=O)C(F)(F)C(F)(F)F)s2)cc1,,4200 nM,,,2900 nM,,,inactive,Activity [6]: inactive; Activity (Histone deacetylase 4 [9]): inactive
O=C(c1ccc(C(=O)C(F)(F)F)[nH]1)N1CCc2ccccc21,880 nM,,,,,inactive,inactive,inactive,inhibition (Histone deacetylase 4 [9]): 47%
CS(=O)(=O)c1ccc(C(=O)N2CCc3ccccc32)s1,,,,,,inactive,inactive,inactive,inhibition [6]: 47%; Activity (Histone deacetylase 4 [9]): inactive
O=C(c1ccc(C(=O)N2CCc3ccccc32)s1)C(F)F,15 nM,9700 nM,7600 nM,420 nM,,,,,inhibition (Histone deacetylase 3 [8]): 42%
C[C@@H](NC(=O)c1ccc(C(=O)C(F)(F)F)s1)c1ccccc1,360 nM,320 nM,76 nM,160 nM,230 nM,,,,
O=C(NCC1CCCCC1)c1cccc(C(=O)C(F)(F)F)c1,4200 nM,,,,,inactive,inactive,inactive,Activity (Histone deacetylase 4 [9]): inactive
CN(Cc1ccccc1)C(=O)c1cc(C(=O)C(F)(F)F)cs1,640 nM,,1700 nM,2500 nM,,inactive,inactive,,

Compound,IC50 [1],IC50 (Histone deacetylase 1 [2]),IC50 (Histone deacetylase 4 [3]),IC50 (Histone deacetylase 4 [4]),IC50 (Histone deacetylase 3 [5]),Activity (Histone deacetylase 1 [7]),Activity (Histone deacetylase 3 [8]),Activity [10],further results
CCOC(=O)c1ccc(C(=O)C(F)(F)F)o1,550 nM,,2500 nM,3100 nM,,,inactive,,inhibition (Histone deacetylase 1 [7]): 48%
CN(Cc1ccccc1)C(=O)c1ccc(C(=O)C(F)(F)F)s1,230 nM,1800 nM,510 nM,170 nM,1200 nM,,,,
O=C(NCC1CCCCC1)c1ccc(C(=O)C(F)(F)F)cc1,2500 nM,,,,,inactive,inactive,,inhibition (Histone deacetylase 4 [9]): 32%; inhibition [10]: 31%
C[C@@H](NCc1ccc(C(=O)C(F)(F)F)s1)c1ccccc1,840 nM,,3700 nM,3500 nM,,inactive,inactive,,
COc1ccc(CNC(=O)c2ccc(C(=O)C(F)(F)F)s2)cc1,240 nM,210 nM,180 nM,70 nM,120 nM,,,,
CN(Cc1ccccc1)C(=O)c1ccc(C(O)C(F)(F)F)s1 (centres undefined),,,,,,inactive,inactive,inactive,Activity [6]: inactive; Activity (Histone deacetylase 4 [9]): inactive
COc1ccc(COCc2ccc(C(=O)C(F)(F)F)s2)cc1,410 nM,,5500 nM,2700 nM,,inactive,inactive,,
CN(Cc1ccc2nccnc2c1)C(=O)c1ccc(C(=O)O)s1,,,,,,inactive,inactive,inactive,Activity [6]: inactive; Activity (Histone deacetylase 4 [9]): inactive
C[C@H](NC(=O)c1ccc(C(=O)C(F)(F)F)s1)c1ccccc1,210 nM,5300 nM,170 nM,280 nM,9400 nM,,,,
O=C(c1ccc(B(O)O)s1)N1CCc2ccccc21,,,,,,inactive,inactive,inactive,inhibition [6]: 42%; Activity (Histone deacetylase 4 [9]): inactive
O=C(c1ccc(P(=O)(O)O)s1)N1CCc2ccccc21,,,,,,inactive,inactive,inactive,Activity [6]: inactive; Activity (Histone deacetylase 4 [9]): inactive
CCNC(=O)c1ccc(C(=O)C(F)(F)F)s1,310 nM,7100 nM,1700 nM,1000 nM,,,,,
CC(=O)c1ccc(C(=O)N[C@H](C)c2ccccc2)s1,6900 nM,,,,,inactive,inactive,inactive,Activity (Histone deacetylase 4 [9]): inactive
O=C(NCC1CCCCC1)c1ccc(C(=O)C(F)(F)F)s1,460 nM,2900 nM,400 nM,350 nM,3100 nM,,,,
CN(Cc1ccccc1)C(=O)c1cnc(C(=O)C(F)(F)F)s1,1300 nM,,760 nM,2200 nM,7300 nM,,,,inhibition (Histone deacetylase 1 [7]): 46%

# Source: ChEMBL document CHEMBL1150306, “2-Trifluoroacetylthiophenes, a novel series of potent and selective class II histone deacetylase inhibitors” (Bioorg Med Chem Lett, 2008)
